We go through 20 compounds from ChEMBL document CHEMBL4270488, “Antibacterial Compounds from Marine Bacteria, 2010-2015” (J Nat Prod, 2017).

In one test the test system is Proteus vulgaris. As to the kind of experiment: Antibacterial activity against Proteus vulgaris by serial dilution assay. The format is functional.
Another test deals with Micrococcus luteus. Description: Antibacterial activity against Micrococcus luteus by serial dilution assay. It counts as functional.
The subject of test [1] is Bacillus subtilis. Description: Antibacterial activity against Bacillus subtilis by serial dilution assay. The format is functional.
In test [2] the test system is Escherichia coli. Description: Antibacterial activity against Escherichia coli by serial dilution assay. The format is functional.
A further test has as its system Salmonella typhi. As to the kind of experiment: Antibacterial activity against Salmonella typhi by broth dilution assay. The format is functional, Salmonella enterica subsp. enterica serovar Typhi. The conditions noted are these: Salmonella enterica. A general note: Broth dilution looks for growth in wells or tubes with falling amounts of substance.
The test system of another test is Pseudomonas aeruginosa. As to the kind of experiment: Antibacterial activity against Pseudomonas aeruginosa by broth dilution assay. The format is functional.
Test [3] relates to Staphylococcus aureus. Description: Antibacterial activity against Staphylococcus aureus by broth dilution assay. The format is functional.
The subject of test [4] is Bacillus subtilis. Description: Antibacterial activity against Bacillus subtilis by broth dilution assay. It counts as functional.
For test [5], the system named is Escherichia coli. As to the kind of experiment: Antibacterial activity against Escherichia coli by broth dilution assay. It counts as functional.
For the next test, the system named is Bacillus thuringiensis. Description: Antibacterial activity against Bacillus thuringiensis SCSIO BT01. It counts as functional.
The subject of test [6] is Staphylococcus aureus. Description: Antibacterial activity against Staphylococcus aureus ATCC 29213. It counts as functional.
The test system of test [7] is Bacillus subtilis. As to the kind of experiment: Antibacterial activity against Bacillus subtilis SCSIO BS01. The format is functional.
The subject of test [8] is Staphylococcus aureus. Description: Antibacterial activity against methicillin-resistant Staphylococcus aureus. The format is functional.

≈ marks a conversion by molar mass, not a printed value. Where a SMILES comes first, the peptide text is derived from it. [ ]: non-standard residue; d: D form. The star is where a group is joined. Tridecanoyl(3R-OH,11-Me) = CCC(C)CCCCCCC[C@@H](O)CC(=O)*; X2 = CCC(C)CC(C)CCCCC[C@@H](O)CC(=O)* Bounds are passed on as bounds.

One may read the MIC as the lowest concentration found to suppress growth.

For `O=C1N/C(=N\O)C(c2ccccc2)=C1c1ccc(O)c([N+](=O)[O-])c1`, the MIC against Proteus vulgaris, against Micrococcus luteus, in the test with Bacillus subtilis [1] and against Escherichia coli [2] was 3 to 25 µg/mL (≈ 9.22 to 76.9 µM) in each case.
For the compound `C[C@@H]1CCC/C=C/C=C/[C@H](O)C[C@@H](O)C[C@@H]2O[C@@H]2/C=C/[C@@H](O)C/C=C/C=C\C(=O)O1` [GAGEOMACROLACTIN 1], the MIC in the test on Salmonella typhi is 0.02 µg/mL (≈ 0.0478 µM); with Pseudomonas aeruginosa, 0.01 µg/mL (≈ 0.0239 µM); with Staphylococcus aureus [3], 0.01 µg/mL (≈ 0.0239 µM); against Bacillus subtilis [4] it was 0.01 µg/mL (≈ 0.0239 µM); in the test with Escherichia coli [5], 0.02 µg/mL (≈ 0.0478 µM).
Take `CC(C)=CCC/C(C)=C/C[C@]1(O)C(=O)c2cc(O)cc(O)c2C(=O)[C@@]1(Cl)CC=C(C)C`: the minimal inhibitory concentration (MIC) in the test with Bacillus thuringiensis, against Staphylococcus aureus [6] and against Bacillus subtilis [7] was at most 2 µg/mL throughout.
For `C/C(C=O)=C/CC/C(C)=C/C[C@@]12OC(C)(C)[C@H](Cl)C[C@]1(Cl)C(=O)c1c(O)cc(O)cc1C2=O`, the MIC with Bacillus thuringiensis, in the test on Staphylococcus aureus [6] and in the test with Bacillus subtilis [7] was 4 to 32 µg/mL (≈ 8.07 to 64.6 µM) throughout.
For `O=C1N/C(=N\O)C(c2ccc(O)c([N+](=O)[O-])c2)=C1c1ccc(O)c([N+](=O)[O-])c1`, the MIC against Proteus vulgaris, with Micrococcus luteus, in the test with Bacillus subtilis [1] and against Escherichia coli [2] was 3 to 25 µg/mL (≈ 7.77 to 64.7 µM) throughout.
Consider `CCC(C)CCCCCCC[C@@H](O)CC(=O)N[C@@H](CCC(=O)OC)C(=O)N[C@@H](CC(C)C)C(=O)N[C@@H](CC(C)C)C(=O)N[C@@H](CC(C)C)C(=O)O` (stereo partly drawn) ({Tridecanoyl(3R-OH,11-Me)}-E(OMe)LLL-OH), for which the MIC amounted to 0.01 µg/mL (≈ 0.0138 µM) in the test with Salmonella typhi, 0.03 µg/mL (≈ 0.0413 µM) in the test with Pseudomonas aeruginosa, 0.03 µg/mL (≈ 0.0413 µM) against Staphylococcus aureus [3] and 0.01 µg/mL (≈ 0.0138 µM) with Bacillus subtilis [4].
In the case of `CC(=O)[C@H]1[C@@H]2C=C[C@@H]3[C@H]4C/C=C\C(=O)NCCC[C@H]5C(O)=C(C(=O)/C=C/[C@@H]4C[C@@H]3[C@H]2C[C@H]1C)C(=O)N5C`, the MIC in the test on Staphylococcus aureus [8] was 32 to 64 µg/mL (≈ 63.2 to 126 µM).
In the case of `CC[C@H]1[C@@H]2C=C[C@@H]3[C@H]4C/C=C\C(=O)NCCC[C@@H]5NC(=O)C(=C5O)C(=O)/C=C/[C@@H]4C[C@@H]3[C@H]2C[C@H]1C`, the minimum inhibitory concentration (MIC) against Staphylococcus aureus [8] is 1 to 4 µg/mL (≈ 2.09 to 8.36 µM).
In the case of `O=C1NC(=O)C(c2ccc(O)c([N+](=O)[O-])c2)=C1c1ccccc1`, the MIC in the test with Proteus vulgaris, against Micrococcus luteus, in the test with Bacillus subtilis [1] and against Escherichia coli [2] was 25 to 100 µg/mL (≈ 80.6 to 322 µM) in each case.
`CO[C@@H]1[C@@H](OC(N)=O)[C@@H](O)[C@H](Oc2ccc3c(O)c(NC(=O)c4cc(O)c(O)c(CC=C(C)C)c4)c(=O)oc3c2C)OC1(C)C` gave an MIC in the test on Staphylococcus aureus [8] of 8 to 16 µg/mL (≈ 12.7 to 25.5 µM).
Take `O=C1NC(=O)C(c2ccc(O)c([N+](=O)[O-])c2)=C1c1ccc(O)cc1`: the MIC against Proteus vulgaris, in the test on Micrococcus luteus, with Bacillus subtilis [1] and with Escherichia coli [2] was 25 to 100 µg/mL (≈ 76.6 to 307 µM) in each case.
For the compound `O=C1NC(=O)C(c2ccc(O)cc2)=C1c1ccccc1`, the MIC in the test on Proteus vulgaris, against Micrococcus luteus, in the test with Bacillus subtilis [1] and in the test with Escherichia coli [2] was 25 to 100 µg/mL (≈ 94.2 to 377 µM) throughout.
`CC[C@H]1[C@@H]2C=C[C@@H]3[C@H]4/C=C/CC(=O)NCCC[C@@H]5NC(=O)C(=C5O)C(=O)/C=C/[C@@H]4C[C@@H]3[C@H]2C[C@H]1C` gave an MIC in the test on Staphylococcus aureus [8] of 1 to 4 µg/mL (≈ 2.09 to 8.36 µM).
With `COC(=O)N[C@H]1[C@@H](C)O[C@@H](O[C@H]2C/C=C(\C)[C@@H]3C=C[C@@H]4[C@@H](O[C@H]5C[C@@H](O[C@H]6C[C@@H](O)[C@@H](O)[C@H](C)O6)[C@@H](O)[C@H](C)O5)[C@@H](C)C[C@H](C)[C@H]4[C@]3(C)C(=O)C3=C(O)[C@@]4(C[C@@H](C)C(C)=C[C@H]4/C=C/2C)OC3=O)C[C@]1(C)[N+](=O)[O-]`, the MIC against Staphylococcus aureus [6] was in the range of 6.2 to 50 µg/mL (≈ 6.04 to 48.7 µM).
Regarding `CO[C@@H]1/C=C/[C@H](O)C[C@@H](O)C/C=C\C=C\[C@@H](O)C/C=C/C=C\C(=O)O[C@H](C)CCC[C@@H]1O`, the MIC with Bacillus subtilis [4] and against Escherichia coli [5] was at least 16 µg/mL in each case.
For `CC1(C)OC2=C(C[C@H]1Cl)C(=O)c1c(O)cc(O)cc1C2=O`, the MIC with Bacillus thuringiensis, in the test on Staphylococcus aureus [6] and in the test on Bacillus subtilis [7] was 4 to 32 µg/mL (≈ 13 to 104 µM) each time.
In the case of `CC(=O)O[C@H]1[C@@H](O)[C@H](Oc2ccc3c(O)c(NC(=O)c4cc(O)c(O)c(CC=C(C)C)c4)c(=O)oc3c2C)OC(C)(C)[C@@H]1O`, in the test with Staphylococcus aureus [8], the MIC was above 64 µg/mL.
With `CCC(C)CCCCCCC[C@@H](O)CC(=O)N[C@@H](CCC(=O)O)C(=O)N[C@@H](CC(C)C)C(=O)O` (some centres not stated), the MIC in the test with Salmonella typhi was 0.03 µg/mL (≈ 0.0616 µM); against Pseudomonas aeruginosa, 0.03 µg/mL (≈ 0.0616 µM); in the test on Staphylococcus aureus [3], 0.01 µg/mL (≈ 0.0205 µM); against Bacillus subtilis [4] it was 0.01 µg/mL (≈ 0.0205 µM).
With `CCC(C)CC(C)CCCCC[C@@H](O)CC(=O)N[C@@H](CCC(=O)O)C(=O)N[C@@H](CC(C)C)C(=O)N[C@@H](CC(C)C)C(=O)N[C@@H](C(=O)N[C@@H](CC(=O)O)C(=O)N[C@@H](CC(C)C)C(=O)N[C@@H](CC(C)C)C(=O)O)C(C)C` (some centres not stated) (X2-ELL[dV]DLL-OH), the MIC is 32 µg/mL (≈ 30.3 µM) against Salmonella typhi, 16 µg/mL (≈ 15.2 µM) with Pseudomonas aeruginosa, 16 µg/mL (≈ 15.2 µM) in the test on Staphylococcus aureus [3] and 32 µg/mL (≈ 30.3 µM) against Bacillus subtilis [4].
On to `C[C@@H]1CCC/C=C/C=C/[C@H](O)C[C@@H](O)[C@H](O)/C=C\C=C\[C@H](O)C/C=C/C=C\C(=O)O1`, for which the MIC against Staphylococcus aureus [3], with Bacillus subtilis [4] and with Escherichia coli [5] was 0.1 µg/mL (≈ 0.239 µM) in each case.
